A short description of the series: Acid dissociation constant pKa of flux agent. The settings on record: for pKa: dilute aqueous solution; for pKa1: first dissociation constant of a dicarboxylic acid.

Method: The pKa can be determined by measuring an acid dissociation constant Ka=[H3O][B^−]/[BH] under the condition of a dilute aqueous solution of the carboxyl group-containing compound and using the equation of pKa=−log Ka. Here, BH represents a carboxyl group-containing compound, and B^− represents a conjugate base of the carboxyl group-containing compound. The pKa can be measured in such a manner that a hydrogen ion concentration is measured using a pH meter, and the pKa is calculated from the concentration of a relevant substance and the hydrogen ion concentration.

As for `O=C(O)c1ccccc1[N+](=O)[O-]` [2-nitrobenzoic acid], the pKa (as a rule, the pH at which an ionisable group is half protonated) was found to be 2.5.

Regarding `O=C(O)CCCCCCCCCCC(=O)O` [Dodecanedioic acid, dodecanedioic acid], the pKa came out at 5 and the pKa1 is 5.0.

As for `O=C(O)c1ccccc1-c1ccccc1` [2-phenylbenzoic acid], the pKa is 3.5.

Regarding `O=C(O)c1c(O)cccc1O` [2,6-dihydroxybenzoic acid], the pKa came out at 1.2.

Turning to `O=C(O)CCCCCCC(=O)O` [Octanedioic acid, octanedioic acid], the pKa was found to be 4.5 and the pKa1 is given as 4.5.

`CN(C)c1ccc(C(=O)O)cc1` [p-dimethylaminobenzoic acid] yielded a pKa of 4.9.

In the case of `O=C(O)C1CCCCC1C(=O)O` (stereo not shown), the pKa turned out to be 4.4 and the pKa1 stood at 4.4.
